target: T1, recombinant human baculovirus-expressed VEGFR1 cytoplasmic domain (Homo sapiens, UniProt P17948); assay: VEGFR1 kinase inhibition assay (ELISA-based, time-resolved fluorescence); type: biochemical; conditions: 1 uM compound; 30 μM ATP
T1 construct: recombinant human baculovirus-expressed VEGFR1 cytoplasmic domain; host or cells: baculovirus expression system
T1 sequence (P17948 781-1338 limits assumed): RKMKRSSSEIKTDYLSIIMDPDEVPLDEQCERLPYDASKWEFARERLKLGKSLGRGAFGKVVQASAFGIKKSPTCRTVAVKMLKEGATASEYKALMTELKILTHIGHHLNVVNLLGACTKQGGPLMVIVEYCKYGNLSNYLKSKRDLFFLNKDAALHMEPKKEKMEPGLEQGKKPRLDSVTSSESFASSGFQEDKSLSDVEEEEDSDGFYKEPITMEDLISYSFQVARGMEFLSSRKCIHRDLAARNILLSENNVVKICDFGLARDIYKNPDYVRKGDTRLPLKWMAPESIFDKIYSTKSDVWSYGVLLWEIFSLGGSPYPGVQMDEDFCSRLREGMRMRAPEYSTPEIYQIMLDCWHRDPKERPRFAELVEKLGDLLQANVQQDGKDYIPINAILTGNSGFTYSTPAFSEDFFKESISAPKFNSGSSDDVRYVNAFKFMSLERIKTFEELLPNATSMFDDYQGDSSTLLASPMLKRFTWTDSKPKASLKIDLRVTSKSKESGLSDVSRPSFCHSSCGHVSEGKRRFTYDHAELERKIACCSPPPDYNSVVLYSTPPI
Method in brief: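 Prephosphorylated baculovirus-expressed VEGFR1 cytoplasmic domain (300 ng/ml) phosphorylates plate-bound PLC-γ/GST with 30 μM ATP, 10 mM MnCl2, pH 7.4, 15 min at 37 °C. Compounds tested at 1 μM. Phosphotyrosine detected with europium anti-phosphotyrosine antibody by time-resolved fluorescence.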

Point of comparison: `N#CCCn1cc(C=C2C(=O)NN=C2c2cccs2)c2ccccc21` [Compound 66], “VEGFR-1 kinase % inhibition @ 1 uM” value 24%. Against it:
- O=C1NN=C(c2ccco2)C1=Cc1cn(CCOCc2ccccc2)c2ccccc12 [Compound 71] — lower, 12%
- O=C1NN=C(c2ccco2)C1=Cc1c[nH]c2cccc(OCc3ccccc3)c12 [Compound 44] — lower, 2%
- COC(=O)c1ccc2[nH]cc(C=C3C(=O)NN=C3c3ccoc3)c2c1 [Compound 16] — lower, 18%
- Cc1ccc2c(C=C3C(=O)NN=C3c3ccn(C)c3)c[nH]c2c1 [Compound 33] — higher, 36%
- O=C1NN=C(c2ccoc2)C1=Cc1ccc[nH]1 [Compound 12] — higher, 29%
- Cc1cc(C)c(C=C2C(=O)NN=C2c2csc(-c3ccccc3)n2)[nH]1 [Compound 40] — lower, 16%
- Cc1cc(C)c(C=C2C(=O)NN=C2c2cccs2)[nH]1 [Compound 61] — higher, 44%
- O=C1NN=C(c2ccoc2)C1=Cc1c[nH]c2ccc(OCc3ccccc3)cc12 [Compound 21] — lower, 0%

same assay, conditions: 1 uM compound; 30 μM ATP; read-out: VEGFR-1 kinase % inhibition @ 1 uM

Point of comparison: `O=C1NN=C(c2ccco2)C1=Cc1c[nH]c2ccccc12` [Compound 29, 3-(2-furyl)-4-(indol-3-ylmethylene)-2-pyrazolin-5-one], inhibition at 1 µM 53%. Against it:
- O=C1NN=C(c2nccs2)C1=Cc1c[nH]c2ccccc12 [Compound 25, 4-(indol-3-ylmethylene)-3-(1,3-thiazol-2-yl)-2-pyrazolin-5-one] — higher, 66%

target: T2, recombinant human baculoviral VEGFR2 cyctoplasmic domain (Homo sapiens, UniProt P35968); assay: VEGFR2 kinase inhibition assay (ELISA-based, time-resolved fluorescence); type: biochemical; conditions: 1 uM compound; 30 μM ATP
T2 construct: recombinant human baculoviral VEGFR2 cyctoplasmic domain; host or cells: baculovirus expression system
T2 sequence (P35968 786-1356 limits assumed): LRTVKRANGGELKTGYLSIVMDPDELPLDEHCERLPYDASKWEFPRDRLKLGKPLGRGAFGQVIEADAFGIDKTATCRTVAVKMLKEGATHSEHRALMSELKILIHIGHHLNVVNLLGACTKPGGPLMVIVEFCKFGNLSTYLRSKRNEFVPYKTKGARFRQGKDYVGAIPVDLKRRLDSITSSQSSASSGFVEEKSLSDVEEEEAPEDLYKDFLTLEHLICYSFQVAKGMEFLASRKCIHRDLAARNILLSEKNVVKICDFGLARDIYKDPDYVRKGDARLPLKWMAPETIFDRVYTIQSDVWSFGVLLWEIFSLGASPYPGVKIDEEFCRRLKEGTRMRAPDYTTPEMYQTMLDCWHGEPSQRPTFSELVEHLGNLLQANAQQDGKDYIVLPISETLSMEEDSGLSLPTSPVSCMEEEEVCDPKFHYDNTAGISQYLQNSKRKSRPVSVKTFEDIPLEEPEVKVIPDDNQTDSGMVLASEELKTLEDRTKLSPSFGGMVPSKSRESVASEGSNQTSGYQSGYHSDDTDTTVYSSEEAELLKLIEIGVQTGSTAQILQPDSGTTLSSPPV

Point of comparison: `O=C1NN=C(c2ccco2)C1=Cc1cn(CCOCc2ccccc2)c2ccccc12` [Compound 71], “VEGFR-2 kinase % inhibition @ 1 uM” value −1%. Against it:
- O=C1NN=C(c2ccco2)C1=Cc1c[nH]c2cccc(OCc3ccccc3)c12 [Compound 44] — higher, 18%
- COC(=O)c1ccc2[nH]cc(C=C3C(=O)NN=C3c3ccoc3)c2c1 [Compound 16] — higher, 34%
- Cc1ccc2c(C=C3C(=O)NN=C3c3ccn(C)c3)c[nH]c2c1 [Compound 33] — higher, 25%
- O=C1NN=C(c2ccoc2)C1=Cc1ccc[nH]1 [Compound 12] — higher, 26%
- Cc1cc(C)c(C=C2C(=O)NN=C2c2csc(-c3ccccc3)n2)[nH]1 [Compound 40] — higher, 26%
- Cc1cc(C)c(C=C2C(=O)NN=C2c2cccs2)[nH]1 [Compound 61] — higher, 75%
- N#CCCn1cc(C=C2C(=O)NN=C2c2cccs2)c2ccccc21 [Compound 66] — higher, 32%
- O=C1NN=C(c2ccoc2)C1=Cc1c[nH]c2ccc(OCc3ccccc3)cc12 [Compound 21] — higher, 12%

same assay, conditions: 1 uM compound; 30 μM ATP; read-out: VEGFR-2 kinase % inhibition @ 1 uM

Point of comparison: `O=C1NN=C(c2ccco2)C1=Cc1c[nH]c2ccccc12` [Compound 29, 3-(2-furyl)-4-(indol-3-ylmethylene)-2-pyrazolin-5-one], inhibition at 1 µM 68%. Against it:
- O=C1NN=C(c2nccs2)C1=Cc1c[nH]c2ccccc12 [Compound 25, 4-(indol-3-ylmethylene)-3-(1,3-thiazol-2-yl)-2-pyrazolin-5-one] — lower, 64%

target: T3, baculovirus-expressed human trkA cytoplasmic domain (Homo sapiens, UniProt P04629); assay: trkA tyrosine kinase inhibition assay (ELISA-based); type: biochemical; conditions: 1 uM compound; 40 μM ATP
T3 construct: baculovirus-expressed human trkA cytoplasmic domain; host or cells: baculovirus expression system
Method in brief: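 ELISA with PLC-γ1/GST fusion substrate coated on plate; kinase reaction in 50 mM Hepes pH 7.4, 40 μM ATP, 10 mM MnCl2, 0.1% BSA, 2% DMSO, 15 min at 37°C, started by enzyme. Phosphotyrosine detected by anti-phosphotyrosine and alkaline phosphatase secondary antibody with amplified read-out; inhibition fitted by variable-slope sigmoidal dose-response.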

T3 sequence (P04629 440-796 limits assumed): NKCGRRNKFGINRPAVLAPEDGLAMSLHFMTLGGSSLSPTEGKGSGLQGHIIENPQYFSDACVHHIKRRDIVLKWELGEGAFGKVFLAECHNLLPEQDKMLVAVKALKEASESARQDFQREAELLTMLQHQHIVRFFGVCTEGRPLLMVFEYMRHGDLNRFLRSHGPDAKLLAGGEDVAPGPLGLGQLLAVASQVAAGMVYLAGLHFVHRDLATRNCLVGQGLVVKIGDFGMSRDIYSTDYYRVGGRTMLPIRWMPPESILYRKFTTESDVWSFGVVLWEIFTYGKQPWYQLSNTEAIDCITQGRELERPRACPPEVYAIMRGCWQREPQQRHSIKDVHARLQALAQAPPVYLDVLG

Point of comparison: `O=C1NN=C(c2ccco2)C1=Cc1c[nH]c2ccccc12` [Compound 29, 3-(2-furyl)-4-(indol-3-ylmethylene)-2-pyrazolin-5-one], inhibition at 1 µM 43%. Against it:
- O=C1NN=C(c2nccs2)C1=Cc1c[nH]c2ccccc12 [Compound 25, 4-(indol-3-ylmethylene)-3-(1,3-thiazol-2-yl)-2-pyrazolin-5-one] — higher, 65%

Point of comparison: `Cc1ccc2c(C=C3C(=O)NN=C3c3ccn(C)c3)c[nH]c2c1` [Compound 33], “trkA % inhibition @ 1 uM” value 32%. Against it:
- O=C1NN=C(c2ccco2)C1=Cc1cn(CCOCc2ccccc2)c2ccccc12 [Compound 71] — lower, 15%
- O=C1NN=C(c2ccco2)C1=Cc1c[nH]c2cccc(OCc3ccccc3)c12 [Compound 44] — lower, 23%
- COC(=O)c1ccc2[nH]cc(C=C3C(=O)NN=C3c3ccoc3)c2c1 [Compound 16] — lower, 29%
- O=C1NN=C(c2ccoc2)C1=Cc1ccc[nH]1 [Compound 12] — higher, 44%
- Cc1cc(C)c(C=C2C(=O)NN=C2c2csc(-c3ccccc3)n2)[nH]1 [Compound 40] — lower, 27%
- Cc1cc(C)c(C=C2C(=O)NN=C2c2cccs2)[nH]1 [Compound 61] — higher, 35%
- N#CCCn1cc(C=C2C(=O)NN=C2c2cccs2)c2ccccc21 [Compound 66] — the same, 32%
- O=C1NN=C(c2ccoc2)C1=Cc1c[nH]c2ccc(OCc3ccccc3)cc12 [Compound 21] — higher, 56%

target: T4, baculoviral GST-MLK3KD (Homo sapiens, UniProt Q16584); assay: Mixed Lineage Kinase-3 inhibition assay (Millipore Multiscreen plate, 32P); type: biochemical; conditions: 1 uM compound; 100 μM ATP
T4 construct: 2 μg/ml of baculoviral GST-MLK3KD; GST (N); host or cells: baculovirus expression system
Method in brief: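 Radiometric filter-plate assay: 2 μg/ml baculoviral GST-MLK3KD with 500 μg/ml myelin basic protein, 100 μM ATP plus [γ-32P]ATP, in 20 mM Hepes pH 7, 10 mM MgCl2, 1 mM DTT, 2% DMSO. Incubated 15 min at 37 °C, stopped and precipitated with cold TCA, washed, then scintillation counted.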

T4 sequence (Q16584 117-379 limits assumed): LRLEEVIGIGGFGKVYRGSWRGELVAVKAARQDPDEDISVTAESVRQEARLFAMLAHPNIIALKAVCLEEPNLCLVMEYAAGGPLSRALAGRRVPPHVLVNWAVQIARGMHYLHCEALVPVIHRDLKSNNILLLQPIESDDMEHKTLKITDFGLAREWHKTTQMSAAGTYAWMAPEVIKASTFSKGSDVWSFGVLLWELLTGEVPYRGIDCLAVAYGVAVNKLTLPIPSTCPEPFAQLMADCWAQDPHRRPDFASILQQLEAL

Point of comparison: `N#CCCn1cc(C=C2C(=O)NN=C2c2cccs2)c2ccccc21` [Compound 66], “MLK-3 Kinase % inhibition @ 1 uM” value 11%. Against it:
- O=C1NN=C(c2ccco2)C1=Cc1cn(CCOCc2ccccc2)c2ccccc12 [Compound 71] — lower, 9%
- O=C1NN=C(c2ccco2)C1=Cc1c[nH]c2cccc(OCc3ccccc3)c12 [Compound 44] — higher, 28%
- COC(=O)c1ccc2[nH]cc(C=C3C(=O)NN=C3c3ccoc3)c2c1 [Compound 16] — higher, 12%
- Cc1ccc2c(C=C3C(=O)NN=C3c3ccn(C)c3)c[nH]c2c1 [Compound 33] — higher, 28%
- O=C1NN=C(c2ccoc2)C1=Cc1ccc[nH]1 [Compound 12] — higher, 29%
- Cc1cc(C)c(C=C2C(=O)NN=C2c2csc(-c3ccccc3)n2)[nH]1 [Compound 40] — higher, 22%
- Cc1cc(C)c(C=C2C(=O)NN=C2c2cccs2)[nH]1 [Compound 61] — higher, 72%
- O=C1NN=C(c2ccoc2)C1=Cc1c[nH]c2ccc(OCc3ccccc3)cc12 [Compound 21] — higher, 24%

same assay, conditions: 1 uM compound; 100 μM ATP; read-out: MLK-3 Kinase % inhibition @ 1 uM

Point of comparison: `O=C1NN=C(c2nccs2)C1=Cc1c[nH]c2ccccc12` [Compound 25, 4-(indol-3-ylmethylene)-3-(1,3-thiazol-2-yl)-2-pyrazolin-5-one], inhibition at 1 µM 48%. Against it:
- O=C1NN=C(c2ccco2)C1=Cc1c[nH]c2ccccc12 [Compound 29, 3-(2-furyl)-4-(indol-3-ylmethylene)-2-pyrazolin-5-one] — lower, 38%

From patent US6831075B2, “Heterocyclic substituted pyrazolones” (Cephalon, Inc., priority 1999, dated 2004)
